Consider 13 compounds from US7064120B2, “Tricyclic pyridyl carboxamides and derivatives thereof tocolytic oxytocin receptor antagonists” (Wyeth, priority 2001, dated 2006).

The test addresses T1, human oxytocin receptor (Homo sapiens, UniProt P30559).
T1 construct: host or cells: CHO cells, stably transfected (pcDNA3.1 vector)
T1 sequence (P30559 1-389): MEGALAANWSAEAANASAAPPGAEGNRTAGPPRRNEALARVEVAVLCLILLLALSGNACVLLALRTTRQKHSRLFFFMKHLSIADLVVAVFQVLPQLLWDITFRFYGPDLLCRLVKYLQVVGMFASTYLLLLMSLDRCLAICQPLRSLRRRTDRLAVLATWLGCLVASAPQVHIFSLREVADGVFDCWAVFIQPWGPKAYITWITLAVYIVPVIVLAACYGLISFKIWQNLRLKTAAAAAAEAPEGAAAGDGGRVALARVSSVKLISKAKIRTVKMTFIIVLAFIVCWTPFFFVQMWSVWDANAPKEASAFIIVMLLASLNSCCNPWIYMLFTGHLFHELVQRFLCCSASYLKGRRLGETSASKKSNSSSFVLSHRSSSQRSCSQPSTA
Kind of test: Oxytocin binding in CHO cell membranes expressing human oxytocin receptors ([3H]oxytocin radioligand binding). The following applies: 100 nM, read-out: OT % inhibition @ 100 nM. The method, boiled down:
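Values are % inhibition at one concentration or nM IC50 from [3H]oxytocin displacement. Membranes from human oxytocin receptor CHO cells, 25–50 μg protein/well, 60 min at room temperature, pH 7.4 Tris buffer with protease inhibitors; bound label by filtration and scintillation counting.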
For the compound `COc1cc(C(=O)N2Cc3ccc(C(=O)N(C)CCc4ccncc4)n3Cc3ccccc32)ccc1-c1cccc2ccccc12` [Example 134, 10-[3-Methoxy-4-(naphthalen-1-yl)benzoyl]-N-methyl-N-[2-(4-pyridinyl)ethyl]-10,11-dihydro-5H-pyrrolo[2,1-c][1,4]benzodiazepine-3-carboxamide], the inhibition at 0.1 µM amounted to 88%.

`COc1cccc(-c2ccc(C(=O)N3Cc4ccc(C(=O)N(C)CCc5ccncc5)n4Cc4ccccc43)cc2OC)c1` [Example 135, 10-[(2,3′-Dimethoxy-[1,1′-biphenyl]-4-yl)carbonyl]-N-methyl-N-[2-(4-pyridinyl)ethyl]-10,11-dihydro-5H-pyrrolo[2,1-c][1,4]benzodiazepine-3-carboxamide]: the inhibition at 0.1 µM came out at 96%.

`CN(CCc1ccncc1)C(=O)c1ccc2n1Cc1ccccc1N(C(=O)c1ccc(-c3cccc4ccccc34)cc1Cl)C2` [Example 136, 10-[2-Chloro-4-(naphthalen-1-yl)benzoyl]-N-methyl-N-[2-(4-pyridinyl)ethyl]-10,11-dihydro-5H-pyrrolo[2,1-c][1,4]benzodiazepine-3-carboxamide]: the inhibition at 0.1 µM is 44%.

Take `Cc1cc(C(=O)N2Cc3ccc(C(=O)N(C)CCc4ccncc4)n3Cc3ccccc32)ccc1-c1ccccc1C(F)(F)F` [Example 137, N-Methyl-10-{[2-methyl-2′-trifluoromethyl-[1,1′-biphenyl]-4-yl]carbonyl}-N-[2-(4-pyridinyl)ethyl]-10,11-dihydro-5H-pyrrolo[2,1-c][1,4]benzodiazepine-3-carboxamide]: the inhibition at 0.1 µM turned out to be 95%.

In the case of `COc1ccccc1-c1ccc(C(=O)N2Cc3ccc(C(=O)N4CCCCC4c4cccnc4)n3Cc3ccccc32)cc1C` (stereo not shown) [Example 138, {10-[(2′-Methoxy-2-methyl-[1,1′-biphenyl]-4-yl)carbonyl]-10,11-dihydro-5H-pyrrolo[2,1-c][1,4]benzodiazepin-3-yl}[2-(3-pyridinyl)-1-piperidinyl]methanone], the inhibition at 0.1 µM was 97%.

Regarding `COc1ccccc1-c1ccc(C(=O)N2Cc3ccc(C(=O)N4CCCCC4c4cccnc4)n3Cc3ccccc32)cc1` (stereo not shown) [Example 139, {10-[(2′-Methoxy-[1,1′-biphenyl]-4-yl)carbonyl]-10,11-dihydro-5H-pyrrolo[2,1-c][1,4]benzodiazepin-3-yl}[2-(3-pyridinyl)-1-piperidinyl]methanone], the inhibition at 0.1 µM was determined as 96%.

In the case of `COc1cc(-c2ccccc2C)c(Cl)cc1C(=O)N1Cc2ccc(C(=O)N3CCCCC3c3cccnc3)n2Cc2ccccc21` (stereo not shown) [Example 140, {10-[(6-Chloro-3-methoxy-2′-methyl-[1,1′-biphenyl]-4-yl)carbonyl]-10,11-dihydro-5H-pyrrolo[2,1-c][1,4]benzodiazepin-3-yl}[2-(3-pyridinyl)-1-piperidinyl]methanone], the inhibition at 0.1 µM is 95%.

On to `COc1ccccc1-c1ccc(C(=O)N2Cc3ccc(C(=O)N4CCCCC4c4cccnc4)n3Cc3ccccc32)cc1OC` (stereo not shown) [Example 141, {10-[(2,2′-Dimethoxy-[1,1′-biphenyl]-4-yl)carbonyl]-10,11-dihydro-5H-pyrrolo[2,1-c][1,4]benzodiazepin-3-yl}[2-(3-pyridinyl)-1-piperidinyl]methanone], for which the inhibition at 0.1 µM turned out to be 96%.

Consider `Cc1cc(C(=O)N2Cc3ccc(C(=O)N4CCCCC4c4cccnc4)n3Cc3ccccc32)ccc1-c1ccccc1C(F)(F)F` (stereo not shown) [Example 142, (10-{[2-Methyl-2′-trifluoromethyl-[1,1′-biphenyl]-4-yl]carbonyl}-10,11-dihydro-5H-pyrrolo[2,1-c][1,4]benzodiazepin-3-yl)[2-(3-pyridinyl)-1-piperidinyl]methanone], for which the inhibition at 0.1 µM was found to be 93%.

Consider `COc1cc(C(=O)N2Cc3ccc(C(=O)N(C)CCc4ccccn4)n3Cc3ccccc32)ccc1-n1c(C)ccc1C` [Example 144, 10-[4-(2,5-Dimethyl-1H-pyrrol-1-yl)-3-methoxybenzoyl]-N-methyl-N-[2-(pyridin-2-yl)ethyl]-10,11-dihydro-5H-pyrrolo[2,1-c][1,4]benzodiazepine-3-carboxamide], for which the inhibition at 0.1 µM stood at 57%.

As to `COc1cc(C(=O)N2Cc3ccc(C(=O)N4CCN(c5ccccn5)CC4)n3Cc3ccccc32)ccc1-n1c(C)ccc1C` [Example 145, {10-[4-(2,5-Dimethyl-1H-pyrrol-1-yl)-3-methoxybenzoyl]-10,11-dihydro-5H-pyrrolo[2,1-c][1,4]benzodiazepin-3-yl}[4-(pyridin-2-yl)-1-piperazinyl]methanone], the inhibition at 0.1 µM amounted to 22%.

For `COc1cc(C(=O)N2Cc3ccc(C(=O)N4CCN(c5ccncc5)CC4)n3Cc3ccccc32)ccc1-n1c(C)ccc1C` [Example 146, {10-[4-(2,5-Dimethyl-1H-pyrrol-1-yl)-3-methoxybenzoyl]-10,11-dihydro-5H-pyrrolo[2,1-c][1,4]benzodiazepin-3-yl}[4-(pyridin-4-yl)-1-piperazinyl]methanone], the inhibition at 0.1 µM worked out at 38%.

With `COc1cc(C(=O)N2Cc3ccc(C(=O)N(C)CCc4ccncc4)n3Cc3ccccc32)ccc1-n1c(C)ccc1C` [Example 147, 10-[4-(2,5-Dimethyl-1H-pyrrol-1-yl)-3-methoxybenzoyl]-N-methyl-N-[2-(pyridin-4-yl)ethyl]-10,11-dihydro-5H-pyrrolo[2,1-c][1,4]benzodiazepine-3-carboxamide], the inhibition at 0.1 µM was found to be 64%.

As a reminder, the inhibition is the relative decrease from the control value, in per cent.
